Measurements as given in patent US20260325542A1, “CANCER TARGETING COMPLEX, AND COMPOSITION COMPRISING SAME FOR PREVENTING OR TREATING CANCER” (EWHA UNIVERSITY - INDUSTRY COLLABORATION FOUNDATION, priority 2023, published 2026).
pIC50: −log10 of the molar value. “Also recorded” adds a separate entry of the source.

Columns and labels:
[1] = test system: Bcl-2; assay: Western blot, Bcl-2 level in 4T1 cells; format: cell-based, mouse; conditions: 0 to 10 μM, 24 hours
Method: (§1) Accordingly, Western blot analysis was performed to confirm the anticancer ability by evaluating the presence or absence of degradation of BRD4 and other related proteins (e.g., c-Myc and Bcl-2) when cancer cells were treated with the complex for cancer targeting (ECMal-PROTAC) of example 1. The complex for cancer targeting (ECMal-PROTAC) of example 1 and ARV-771 were prepared as samples.
(§2) First, 1×10^5 4T1 cells were dispensed into each well of a 6-well culture plate and cultured for 24 hours at 37° C. and 5% carbon dioxide atmosphere. The cell culture medium was supplemented with various concentrations of ARV-771 (0 to 10 μM) or the complex for cancer targeting (ECMal-PROTAC) of example 1 (0 to 10 μM), and cultured at 37° C. for 24 hours. After the culture was completed, the cells were washed 3 times with PBS, and lysed with a lysis buffer containing 1% […]. Cell debris from the recovered lysate was removed by centrifugation at 12,000 rpm for 25 minutes. After recovering the supernatant, the protein amount was measured using a BCA kit. The supernatant was loaded onto a 10% sodium dodecyl sulfate-polyacrylamide gel. Electrophoresis (SDS-PAGE) was performed, followed by blotting onto a polyvinylidene difluoride (PVDF) membrane. […] The immunoreactive bands on the PVDF membrane were analyzed through an ECL (enhanced chemiluminescence) system.

[2] = test system: 4T1 cells; assay: CCK-8 assay, toxicity on cancer cells; format: cell-based, mouse; conditions: CCK-8, 48 hours
Method: The toxicity of ARV-771 and ECMal-PROTAC on cancer cells was analyzed by the CCK-8 (cell counting kit-8) assay. 4T1 cells were dispensed into a 96-well culture plate at 3×10^3 cells per well. They were cultured for 24 hours at 37° C. and 5% carbon dioxide atmosphere. The cells were treated with different concentrations of ARV-771 (0.01 to 100 μM), the complex for cancer targeting (ECMal-PROTAC) of example 1 (0.01 to 100 μM), and the complex for cancer targeting (Mal-PROTAC) of example 2 (0.01 to 100 μM) separately, and cultured for 48 hours. After exposing each well to 10% CCK-8-containing culture media for 30 minutes, the viability of 4T1 cells treated with ARV-771 or 4T1 cells treated with ECMal-PROTAC or Mal-PROTAC was analyzed with a microplate reader. The change in cell viability according to the concentration of ARV-771 or ECMal-PROTAC or Mal-PROTAC was calculated using GraphPad Prism 8 software (GraphPad Software, San Diego, CA, USA) by fitting the IC50 (haf-maximal inhibitory concentration) value.

[3] = target: T1, BRD4 (Mus musculus, UniProt Q9ESU6); assay: Western blot of excised cancer tissue, BRD4; format: in vivo
T1 construct: Western blot after PROTAC (ARV-771 release, VHL recruiting)
Method: (§3) The control group was administered saline (10 mg/kg) once every 3 days for 15 days through the tail vein (total 4 administrations). The comparison group was administered ARV-771 (10 mg/kg) once every 3 days for 15 days through the tail vein (total 4 administrations). The example group was administered ECMal-PROTAC 10 mg/kg (wquiv. to ARV-771) of example 1 once every 3 days for 15 days through the tail vein (total 4 administrations).

[4] = test system: cancer tissue; assay: TUNEL analysis of excised cancer tissue; format: in vivo, mouse; conditions: cancer tissue excised after 15 days
Method: Cancer animal models were prepared by inoculating 1×10^6 4T1 cells into the left thigh of the mice, and raising them until the tumor volume reached 50-80 mm^3.
as §3
(§4) The control group, the comparison group, and the example group were euthanized after 15 days, and major organs (heart, liver, lung, spleen, kidney) and cancer tissue were excised.
(§5) Furthermore, to analyze cancer cell apoptosis, TUNEL (terminal deoxynucleotidyl transferase dUTP nick end labeling) analysis was performed on cancer tissue excised from the control group, the comparison group, and the example group. Next, histological analysis was performed by H&E (hematoxylin & eosin) staining of the major organ tissues and cancer tissue of each excised group.

[5] = target: T1, BRD4; assay: DAB staining of excised cancer tissue; format: in vivo; conditions: FIG. 34
Method: as §3
FIG. 34 is the result of DAB staining of cancer tissue excised from the control group, the comparison group, and the example group.

[6] = test system: organ tissue and cancer tissue; assay: H&E histology of major organs and cancer tissue; format: in vivo, mouse; conditions: excised after 15 days
Method: as §3, §4, §5
According to FIG. 29, major organ tissue and cancer tissue were excised from the control group, the comparison group, and the example group after 15 days. The excised organ tissue and cancer tissue were stained with H&E (hematoxylin & eosin). The H&E stained tissue was observed using a BX51 optical microscope (Olympus, Tokyo, Japan) and a TCS SP8 confocal laser microscope.

[7] = test system: c-Myc; assay: Western blot of excised cancer tissue, c-Myc; format: in vivo, mouse
Method: as §3

[8] = test system: liver tissue; assay: TUNEL analysis of liver tissue; format: in vivo, mouse; conditions: excised after 15 days
[9] = test system: c-Myc; assay: Western blot, c-Myc level in 4T1 cells; format: cell-based, mouse; conditions: 0 to 10 μM, 24 hours
Method: as §1, §2

[10] = test system: BRD4 and c-Myc; assay: Immunofluorescence of excised cancer tissue (DAPI, anti-BRD4, anti-c-Myc); format: in vivo, mouse; conditions: vs comparison group and control group
Method: as §3
FIG. 33 is an image taken with a confocal laser scanning microscope after staining cancer tissue excised from the control group (Control, Saline), the comparison group (ARV-771, intravenous injection), and the example group (ECMal-PROTAC, intravenous injection) with DAPI, anti-BRD4, and anti-c-Myc.

[11] = target: T1, BRD4; assay: Western blot, BRD4 degradation in 4T1 cells; format: cell-based; conditions: 24 hours
Method: as §1
First, 1×10^5 4T1 cells were dispensed into each well of a 6-well culture plate and cultured for 24 hours at 37° C. and 5% carbon dioxide atmosphere. The cell culture medium was supplemented with various concentrations of ARV-771 (0 to 10 μM) or the complex for cancer targeting (ECMal-PROTAC) of example 1 (0 to 10 μM), and cultured at 37° C. for 24 hours. After the culture was completed, the cells were washed 3 times with PBS, and lysed with a lysis buffer containing 1% […]. Cell debris from the recovered lysate was removed by centrifugation at 12,000 rpm for 25 minutes. After recovering the supernatant, the protein amount was measured using a BCA kit. The supernatant was loaded onto a 10% sodium dodecyl sulfate-polyacrylamide gel. Electrophoresis (SDS-PAGE) was performed, followed by blotting onto a polyvinylidene difluoride (PVDF) membrane. After blotting, the PVDF membrane was treated with 5% BSA-containing tris buffered saline containing 0.1% Tween 20 (TBS-T) for 2 hours to suppress the non-specific binding of IgG (immunoglobulin G). It was immediately exposed to a rabbit anti-mouse primary antibody (1,000:1). After treating at 4° C. for 24 hours, the PVDF membrane was washed 3 times with TBS-T and further incubated with an HRP-conjugated mouse anti-rabbit IgG antibody at room temperature for 1 hour. The immunoreactive bands on the PVDF membrane were analyzed through an ECL (enhanced chemiluminescence) system.

[12] = Western blot, vs ARV-771 group (so in the source)

BRD4 level in cancer tissue vs control ([3]; Western blot, 10 mg/kg): much lower levels
BRD4 level in cancer tissue, example group vs comparison group [3, 12]: no significant difference
relative expression level of BRD4, fold lower than control group ([3]; cancer tissue, FIG. 32): 7.5 times
BRD4 deficiency (DAB staining) [5]: BRD4 deficiency was confirmed
DC50 ([11]; Western blot, read-out: DC50 (half-maximal degradation concentration), BRD4): 1810 nM
Compound: Cc1ncsc1-c1ccc([C@H](C)NC(=O)[C@@H]2C[C@@H](OC(=O)CCCCn3nnc4c3CCC3C(CC4)C3COC(=O)NCCOCCOCCNC(=O)CCN3C(=O)C=CC3=O)CN2C(=O)[C@@H](NC(=O)COCCCOCCNC(=O)C[C@@H]2N=C(c3ccc(Cl)cc3)c3c(sc(C)c3C)-n3c(C)nnc32)C(C)(C)C)cc1 (stereo partly shown) [ECMal-PROTAC]
Bcl-2 level [1]: reduces the levels; also recorded: reduced expression
IC50 compared to native ARV-771 [2]: slight increase in IC50 compared to native ARV-771
pIC50 ([2]; Mus musculus, 4T1, FIGS. 15A and 15B, read-out: IC50 against cancer cells): 5.11
cancer cell apoptosis (TUNEL) [4]: cancer cell apoptosis was induced throughout the entire cancer tissue
damage to the liver tissue ([6]; H&E): does not cause damage to the liver tissue
damage in cancer tissue (H&E) [6]: strong damage
damage in organ tissue (H&E) ([6]; liver, lung, spleen, kidney, heart): No significant damage
c-Myc level in cancer tissue vs control ([7]; Western blot, 10 mg/kg): much lower levels
c-Myc level in cancer tissue, example group vs comparison group [7, 12]: no significant difference
relative expression level of c-Myc, fold lower than control group ([7]; cancer tissue, FIG. 32): 2.2 times
apoptosis rate in liver tissue vs control (TUNEL) [8]: no significant difference in the apoptosis rate
c-Myc level [9]: reduces the levels; also recorded: reduced expression
fluorescence signals related to c-Myc and BRD4 [10]: weaker fluorescence signals
degradation of overexpressed BRD4 protein ([11]; 0 to 10 μM): degrades the overexpressed BRD4 protein in a concentration-dependent manner; also recorded: induce BRD4 deficiency
